# Assay results: publication PMC9917249, “Zinc Inhibits the GABAAR/ATPase during Postnatal Rat Development: The Role of Cysteine Residue” (International Journal of Molecular Sciences, 2023)
# Molecular target: T1, homomeric GABAAR β3 (Rattus norvegicus, UniProt P63079)
# T1 construct: gene Gabrb3
# Experiment: BCECF fluorescence, GABA-mediated HCO3- efflux
# Assay type: cell-based
# Conditions: 25 mM HCO3-; pH 7.4
# T1 sequence (P63079 26-473): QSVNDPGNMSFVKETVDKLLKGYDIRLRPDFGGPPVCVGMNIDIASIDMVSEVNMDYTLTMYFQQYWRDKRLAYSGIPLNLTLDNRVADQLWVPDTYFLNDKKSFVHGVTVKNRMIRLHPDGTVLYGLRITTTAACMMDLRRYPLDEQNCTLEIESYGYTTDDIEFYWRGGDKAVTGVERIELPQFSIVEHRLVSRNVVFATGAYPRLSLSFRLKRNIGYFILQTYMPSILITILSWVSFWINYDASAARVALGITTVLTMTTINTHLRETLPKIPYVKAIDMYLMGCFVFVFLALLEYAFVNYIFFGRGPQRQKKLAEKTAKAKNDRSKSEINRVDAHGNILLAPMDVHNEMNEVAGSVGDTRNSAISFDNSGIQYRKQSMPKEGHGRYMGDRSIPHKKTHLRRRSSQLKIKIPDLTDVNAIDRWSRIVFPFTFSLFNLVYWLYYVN
smiles,measurement,value
NCCCC(=O)O [GABA],maximum peak fluorescence change at 100 μM GABA,14.0 ± 1.3%
